Measurements published in patent publication US8318753B2, “Farnesyl transferase inhibiting 1,2-annelated quinoline enantiomer” (Janssen Pharmaceutica NV, priority 2000, dated 2012).

Assays:
[1] = target: farnesyl protein transferase (FPTase) (Homo sapiens, UniProt P49354+P49356); assay: In vitro assay for inhibition of farnesyl protein transferase; assay type: biochemical; details: essentially as described in WO 98/40383, pages 33-34, read-out: IC50 FPTase inhibitory activity
Method: In Vitro Assay for Inhibition of Farnesyl Protein Transferase
An in vitro assay for inhibition of farnesyl protein transferase was performed essentially as described in WO 98/40383, pages 33-34.

Structure (SMILES)	IC50 [1] [nM]	melting point [°C]
Cn1cncc1C(N)(c1ccc(Cl)cc1)c1ccc2c(c1)c(-c1cccc(Cl)c1)nc1nnnn12 (racemic) [parent enantiomeric mixture, (±)-5-(3-chlorophenyl)-α-(4-chlorophenyl)-α-(1-methyl-1H-imidazol-5-yl)tetrazolo[1,5-a]quinazoline-7-methanamine, reference compound]	1.1	
Cn1cncc1C(N)(c1ccc(Cl)cc1)c1ccc2c(c1)c(-c1cccc(Cl)c1)nc1nnnn12 (single isomer, unassigned; (-)) [(−) enantiomer, (−)-5-(3-chlorophenyl)-α-(4-chlorophenyl)-α-(1-methyl-1H-imidazol-5-yl)tetrazolo[1,5-a]quinazoline-7-methanamine]	0.7	178 to 180
